pKi: −log10 of the molar value. Entries after “also recorded” stand apart in the source; their conditions may differ. Like-named read-outs stand apart in the source and are kept apart here.
Assays:
[1] = target: T1, human A1 adenosine receptor (Homo sapiens, UniProt P30542); assay: [3H]DPCPX binding to human A1 receptors expressed in CHO cells
T1 construct: expressed in transfected cells; host or cells: CHO cells (membranes)
T1 sequence (P30542 1-326): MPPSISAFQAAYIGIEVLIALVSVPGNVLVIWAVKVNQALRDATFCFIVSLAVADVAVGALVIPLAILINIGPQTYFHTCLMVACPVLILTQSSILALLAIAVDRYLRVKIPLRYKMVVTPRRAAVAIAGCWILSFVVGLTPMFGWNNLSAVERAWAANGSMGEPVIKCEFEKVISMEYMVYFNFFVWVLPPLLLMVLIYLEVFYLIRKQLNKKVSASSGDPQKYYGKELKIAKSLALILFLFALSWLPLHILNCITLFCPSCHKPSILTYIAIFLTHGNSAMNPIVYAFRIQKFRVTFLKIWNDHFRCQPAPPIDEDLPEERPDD
Protocol: (§1) The cells were grown adherently and maintained in Dulbecco's modified Eagle's medium with nutrient mixture F12 without nucleosides at 37° C. in 5% CO2/95% air. The cells were washed with phosphate-buffered saline and scraped off flasks in ice cold hypotonic buffer ([…] Tris HCl, 2 mM EDTA, pH 7.4). The cell suspension was homogenized with a Polytron and the homogenate was centrifuged for 30 minutes at 48,000 g. The resultant membrane pellet was re-suspended in 50 mM Tris HCl buffer at pH 7.4 for A1 adenosine receptors; in 50 mM Tris HCl 10 mM MgCl, at pH 7.4 for A2A adenosine receptors; in 50 mM Tris HCl, 10 mM MgCl2, 1 mM EDTA, at pH 7.4 for A3 adenosine receptors and were utilized for binding assays.
Displacement experiments were performed for 120 minutes at 25° C. in 200 μl of buffer containing 1 nM ^3H]-DPCPX 20 μl of diluted membranes (50 μg of protein/assay) and at least 6 to 8 different concentrations of examined compounds.
(§2) The filter bound radioactivity was counted on Top Count (efficiency 57%) with Micro-Scint 20.
(§3) The filter bound radioactivity was counted on a Top Count brand Microplate Scintillation Counter (efficiency 57%) with Micro-Scint 20. […] Inhibitory binding constant. […] Results and Discussion

[2] = target: T2, human A2A adenosine receptor (Homo sapiens, UniProt P29274); assay: [3H]ZM241385 binding to human A2A receptors expressed in CHO cells; details: for pKi: read-out: Ki, [3H]ZM241385 binding to human A2A receptors expressed in CHO cells; for Ki, [3H]ZM241385 binding to human A2A receptors expressed in CHO cells: geometric mean (95% confidence interval), >1000 = no appreciable binding
T2 construct: expressed in transfected cells; host or cells: CHO cells (membranes)
Protocol: as §1, §2, §3

[3] = target: T3, human A2B adenosine receptor (Homo sapiens, UniProt P29275); assay: [3H]DPCPX binding to human A2B receptors expressed in HEK293 cells; set-up: host or cells: HEK 293 cells (membranes); details: geometric mean (95% confidence interval); >1000 = no appreciable binding; read-out: Ki, [3H]DPCPX binding to human A2B receptors expressed in HEK293 cells
T3 sequence (P29275 1-332): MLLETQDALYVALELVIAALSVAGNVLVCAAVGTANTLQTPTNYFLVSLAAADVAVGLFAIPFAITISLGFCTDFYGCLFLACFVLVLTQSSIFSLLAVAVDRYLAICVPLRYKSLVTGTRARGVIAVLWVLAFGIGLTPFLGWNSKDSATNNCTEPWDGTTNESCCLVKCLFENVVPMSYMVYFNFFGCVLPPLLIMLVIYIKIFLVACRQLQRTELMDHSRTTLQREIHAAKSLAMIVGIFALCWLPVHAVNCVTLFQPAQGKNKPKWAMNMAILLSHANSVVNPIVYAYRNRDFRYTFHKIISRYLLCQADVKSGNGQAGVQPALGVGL
Protocol: HEK 293 cells transfected with the human recombinant A2B adenosine receptor were obtained from Receptor Biology, Inc. (Beltsville, Md. USA).
Binding of 1 [^3H]-DPCPX to HEK 293 cells transfected with the human recombinant A2B adenosine receptors was performed according to the method described by Varani et al., 2000. In particular, assays were carried out for 60 minutes at 25° C. in 100 μl of […] Tris HCl buffer, […] MgCl2, 1 mM EDTA, 0.1 mM benzamidine pH 7.4, 2 IU/ml adenosine deaminase containing 40 nM [^3H]-DPCPX, diluted membranes (20 μg of protein/assay) and at least 6–8 different concentration of tested compounds.
as §2, §3

[4] = target: T4, human A3 adenosine receptor (Homo sapiens, UniProt P0DMS8); assay: [3H]MRE3008F20 binding to human A3 receptors expressed in CHO cells; details: for Ki, [3H]MRE3008F20 binding to human A3 receptors expressed in CHO cells: geometric mean (95% confidence interval), >1000 = no appreciable binding
T4 construct: expressed in transfected cells; host or cells: CHO cells (membranes)
T4 sequence (P0DMS8 1-318): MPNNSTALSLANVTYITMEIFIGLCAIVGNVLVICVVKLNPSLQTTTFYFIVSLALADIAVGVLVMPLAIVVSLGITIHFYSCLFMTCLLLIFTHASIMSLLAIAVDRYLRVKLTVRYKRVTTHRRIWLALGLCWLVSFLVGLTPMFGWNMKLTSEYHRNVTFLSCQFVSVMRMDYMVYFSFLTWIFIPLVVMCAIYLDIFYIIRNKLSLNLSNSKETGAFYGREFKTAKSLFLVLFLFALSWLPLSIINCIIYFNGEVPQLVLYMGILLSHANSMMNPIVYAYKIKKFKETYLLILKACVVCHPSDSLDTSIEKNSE
Protocol: as §1
Binding of [^3H]-MRE3008-F20 to CHO cells transfected with the human recombinant A3 adenosine receptors was performed according to Varani et al., 2000. Competition experiments were carried out in duplicate in a final volume of 250 μl in test tubes containing 1 nM [^3H]-MRE3008-F20, 50 mM Tris HCl buffer, […] MgCl2, pH 7.4 and 100 μl of diluted membranes (50 μg of protein/assay) and at least 6–8 different concentrations of examined ligands for 120 minutes at 4° C.
as §2, §3

[5] = geometric mean (95% confidence interval), >1000 = no appreciable binding

T2 sequence (P29274 whole entry): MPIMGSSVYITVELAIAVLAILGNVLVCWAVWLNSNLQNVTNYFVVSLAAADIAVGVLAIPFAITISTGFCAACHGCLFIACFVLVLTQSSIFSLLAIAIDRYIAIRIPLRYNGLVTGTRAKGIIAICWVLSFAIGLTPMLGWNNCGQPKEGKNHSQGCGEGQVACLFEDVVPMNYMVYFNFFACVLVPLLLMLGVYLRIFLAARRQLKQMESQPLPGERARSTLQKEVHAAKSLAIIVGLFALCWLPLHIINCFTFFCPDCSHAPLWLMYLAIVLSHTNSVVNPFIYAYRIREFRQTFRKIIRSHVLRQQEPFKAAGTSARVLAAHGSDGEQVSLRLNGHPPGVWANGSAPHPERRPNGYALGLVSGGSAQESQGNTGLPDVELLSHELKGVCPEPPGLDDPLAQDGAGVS

Compound	pKi [1, 5]	pKi [2]	pKi [3]	pKi [4]	pKi [1]	Ki, [3H]DPCPX binding to human A1 receptors expressed in CHO cells [1, 5]	Ki, [3H]ZM241385 binding to human A2A receptors expressed in CHO cells [2]	Ki, [3H]MRE3008F20 binding to human A3 receptors expressed in CHO cells [4]
CCCn1c(=O)c2[nH]c(-c3cc(NC(=O)Cc4ccc(OCc5ccc([N+](=O)[O-])cc5)cc4)nn3C)nc2n(CCC)c1=O [AS31, N-[5-(2,6-dioxo-1,3-dipropyl-2,3,6,9-tetrahydro-1H-purin-8-yl)-1-methyl-1H-pyrazol-3-yl]-2-(4-{4-nitro-benzyloxy}phenyl)acetamide]	6.79	< 6.00	6.95	< 6.00				
CCCn1c(=O)c2[nH]c(-c3cc(NC(=O)Nc4ccc(OC)cc4)nn3C)nc2n(CCC)c1=O [AS49, 1-[5-(2,6-Dioxo-1,3-dipropyl-2,3,6,7-tetrahydro-1H-purin-8-yl)-1-methyl-1H-pyrazol-3-yl]-3-(4-methoxy-phenyl)-urea]	5.84	< 6.00	7.09	< 6.00				
CC(C)Cn1c(=O)c2[nH]c(-c3cc(OCC(=O)Nc4ccc(Br)cc4)nn3C)nc2n(CC(C)C)c1=O [AS67, 2-{[5-(1,3-diisobutyl-2,6-dioxo-2,3,6,9-tetrahydro-1H-purin-8-yl)-1-methyl-1H-pyrazol-3-yl]oxy}-N-(4-bromophenyl)acetamide]	5.61	< 6.00	6.88	< 6.00				
CCCn1c(=O)c2[nH]c(-c3cc(NC(=O)COc4ccc(Cl)cc4Cl)nn3C)nc2n(CCC)c1=O [AS12, 2-(2,4-dichlorophenoxy)-N-[5-(2,6-dioxo-1,3-dipropyl-2,3,6,7-tetrahydro-1H-purin-8-yl)-1-methyl-1H-pyrazol-3-yl]acetamide]		< 6.00	< 6.00	< 6.00	< 6.00			
CCCn1c(=O)c2[nH]c(-c3cc(NC(=O)Cc4ccc([N+](=O)[O-])cc4)nn3C)nc2n(CCC)c1=O [AS15, N-[5-(2,6-dioxo-1,3-dipropyl-2,3,6,9-tetrahydro-1H-purin-8-yl)-1-methyl-1H-pyrazol-3-yl]-2-(4-nitrophenyl)acetamide]		< 6.00	7.11	< 6.00		no appreciable affinity; also recorded: without significant binding	no appreciable affinity; also recorded: without significant binding	no appreciable affinity; also recorded: without significant binding
CCCn1c(=O)c2[nH]c(-c3cc(OCC(=O)N4CCN(c5ccccc5)CC4)nn3C)nc2n(CCC)c1=O [AS70, 1,3-di-n-propyl-8-{5-[2-oxo-2-(4-phenyl-piperazin-1-yl)-ethoxy]-2-methyl-2H-pyrazole-3-yl}-xanthine]	6.60	< 6.00	7.82	< 6.00				
CCCn1c(=O)c2[nH]c(-c3cc(NC(=O)Cc4ccc(OCc5ccccc5)cc4)nn3C)nc2n(CCC)c1=O [AS16, 2-[4-benzyloxyphenyl]-N-[5-(2,6-dioxo-1,3-dipropyl-2,3,6,9-tetrahydro-1H-purin-8-yl)-1-methyl-1H-pyrazol-3-yl]acetamide]		< 6.00	7.25	< 6.00		no appreciable affinity; also recorded: without significant binding	no appreciable affinity; also recorded: without significant binding	no appreciable affinity; also recorded: without significant binding
CCCn1c(=O)c2[nH]c(-c3cc([N+](=O)[O-])cn3C)nc2n(CCC)c1=O [AS7, 8-(1-methyl-4-nitro-1H-pyrrol-2-yl)-1,3-dipropyl-3,7-dihydro-1H-purine-2,6-dione]		< 6.00	6.47	< 6.00	6.91			
CCCn1c(=O)c2[nH]c(-c3cc(NC(=O)Cc4ccc(OCc5cccc(C(F)(F)F)c5)cc4)nn3C)nc2n(CCC)c1=O [AS30, N-[5-(2,6-dioxo-1,3-dipropyl-2,3,6,9-tetrahydro-1H-purin-8-yl)-1-methyl-1H-pyrazol-3-yl]-2-(4-{[3-(trifluoromethyl)benzyl]oxy}phenyl)acetamide]	7.00	< 6.00	7.05	< 6.00				
